Measured values: paper PMC8113725, “Structure–activity relationship of ipglycermide binding to phosphoglycerate mutases” (The Journal of Biological Chemistry, 2021)
Read-outs that look alike come from different tables or passages of the source. Bridge positions count the residues as written; N and C are the ends. Square brackets hold non-standard residues; d marks the D form. Ends that are not written are not given here. Peptide text beside a SMILES is read from it. * marks the point of attachment. Phe(4-F) = N[C@@H](Cc1ccc(F)cc1)C(=O)O; Nva = CCC[C@H](N)C(=O)O; NHOH = ON*

T1: B. malayi iPGM (Brugia malayi, UniProt Q4VWF8)
T1 sequence (Q4VWF8 1-515): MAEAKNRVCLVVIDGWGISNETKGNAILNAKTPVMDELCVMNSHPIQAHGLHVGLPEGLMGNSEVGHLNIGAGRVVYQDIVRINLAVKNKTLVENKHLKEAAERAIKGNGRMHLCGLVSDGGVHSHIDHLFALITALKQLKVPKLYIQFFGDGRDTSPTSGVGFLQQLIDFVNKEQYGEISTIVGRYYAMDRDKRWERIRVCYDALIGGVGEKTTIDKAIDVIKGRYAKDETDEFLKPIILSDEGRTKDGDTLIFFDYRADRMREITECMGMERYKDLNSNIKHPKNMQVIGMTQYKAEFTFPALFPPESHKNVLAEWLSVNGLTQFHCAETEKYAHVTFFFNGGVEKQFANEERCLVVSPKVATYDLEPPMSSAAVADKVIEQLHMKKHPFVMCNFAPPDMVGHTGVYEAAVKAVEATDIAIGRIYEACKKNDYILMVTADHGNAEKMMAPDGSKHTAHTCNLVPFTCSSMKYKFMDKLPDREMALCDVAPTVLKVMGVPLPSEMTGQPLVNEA

T2: Ce-2 Thr13Ser (synthetic construct, thioether N-8)
T2 chain: {CH2CO}-[dY]DYPGDYCYLYGSC

T3: Ce-2 (synthetic construct, thioether N-8)
T3 chain: {CH2CO}-[dY]DYPGDYCYLYGTC

T4: Ce-1 NHOH (synthetic construct, thioether N-8; SMILES …)
T4 chain: {CH2CO}-[dY]DYPGDHCYLYGT-{NHOH}

B1: iPGM (protein)
chain: MLVSKKPMVLVILDGYGYREEQQDNAIFSAKTPVMDALWANRPHTLIDASGLEVGLPDRQMGNSEVGHVNLGAGRIVYQDLTRLDVEIKDRAFFANPVLTGAVDKAKNAGKAVHIMGLLSAGGVHSHEDHIMAMVELAAERGAEKIYLHAFLDGRDTPPRSAESSLKKFEEKFAALGKGRVASIIGRYYAMDRDNRWDRVEKAYDLLTLAQGEFQADTAVAGLQAAYARDENDEFVKATVIRAEGQPDAAMEDGDALIFMNFRADRAREITRAFVNADFDGFARKKVVNVDFVMLTEYAADIKTAVAYPPASLVNTFGEWMAKNDKTQLRISETEKYAHVTFFFNGGVEESFKGEDRILINSPKVATYDLQPEMSSAELTEKLVAAIKSGKYDTIICNYPNGDMVGHTGVMEAAVKAVEALDHCVEEVAKAVESVGGQLLITADHGNAEQMRDPATGQAHTAHTNLPVPLIYVGDKNVKAVEGGKLSDIAPTMLSLMGMEIPQEMTGKPLFIVE

How the values were obtained:
E. coli iPGM [1] = target: T5, E. coli iPGM (Escherichia coli, UniProt P37689); assay: SPR binding kinetics and saturation binding, biotinylated iPGM on Biotin CAPture chip (Biacore S200); conditions: for koff / kon: LoQ = limit of quantitation
C. elegans iPGM = C. elegans iPGM (Caenorhabditis elegans, UniProt G5EFZ1); assay: as above
E. coli iPGM [2] = target: T5, E. coli iPGM; assay: biochemical; conditions: […]
B. malayi iPGM = target: T1, B. malayi iPGM; assay: biochemical; assay type: binding; conditions: for Kd: Supplementary Table 5, SPR, B.m. iPGM, unit inferred
D. immitis iPGM = D. immitis iPGM (Dirofilaria immitis, UniProt F4ZE01); assay: biochemical
Ce-2 Thr13Ser = target: T2, Ce-2 Thr13Ser; assay: SPR
Ce-2 = target: T3, Ce-2; assay: SPR
Ce-1 NHOH = target: T4, Ce-1 NHOH; assay: SPR
[3] = Supplementary Table 5, SPR, E.c. iPGM
[4] = Supplementary Table 5, SPR, E.c. iPGM, unit inferred
[5] = SPR, 25 °C, global fit to 1:1 binding model

Molecule	koff (E. coli iPGM [1]; [3]) [s⁻¹]	kon (E. coli iPGM [1]; [3]) [M⁻¹ s⁻¹]	Kd (E. coli iPGM [1]; [4]) [nM]	Kd (C. elegans iPGM) [nM]	koff (C. elegans iPGM) [s⁻¹]	kon (C. elegans iPGM) [M⁻¹ s⁻¹]	IC50 (E. coli iPGM [2]) [nM]	koff (B. malayi iPGM) [s⁻¹]	kon (B. malayi iPGM) [M⁻¹ s⁻¹]	Kd (B. malayi iPGM) [nM]	IC50 (D. immitis iPGM; Di iPGM Ave IC50 (M)) [M]	IC50 (D. immitis iPGM; IC50 (M)) [M]	also measured
CC(C)C[C@H](NC(=O)[C@H](Cc1ccc(O)cc1)NC(=O)[C@@H]1CSCC(=O)N[C@H](Cc2ccc(O)cc2)C(=O)N[C@@H](CC(=O)O)C(=O)N[C@@H](Cc2ccc(O)cc2)C(=O)N2CCC[C@H]2C(=O)NCC(=O)N[C@@H](CC(=O)O)C(=O)N[C@@H](Cc2c[nH]cn2)C(=O)N1)C(=O)N[C@@H](Cc1ccc(O)cc1)C(=O)NCC(=O)N[C@H](C(=O)NO)[C@@H](C)O [Ce-1 NHOH]	0.914	181000	5140	0.109	0.000171	1.86e+06	8970	0.00148	203000	11.5	2.92e-09	–	t½ (E. coli iPGM [1]; SPR, dissociation half-life): ≤1 s; Kd (E. coli iPGM [1]; SPR, Req hyperbolic fit where steady state reached, else koff/kon): 5000 nM; koff (C. elegans iPGM; [5]): 7.8e-05 s⁻¹; kon (C. elegans iPGM; [5]): 1.9e+06 M⁻¹ s⁻¹; koff (B. malayi iPGM; [5]): 0.0015 s⁻¹; kon (B. malayi iPGM; [5]): 200000 M⁻¹ s⁻¹
CC(C)C[C@H](NC(=O)[C@H](Cc1ccc(O)cc1)NC(=O)[C@@H]1CSCC(=O)N[C@H](Cc2ccc(O)cc2)C(=O)N[C@@H](CC(=O)O)C(=O)N[C@@H](Cc2ccc(O)cc2)C(=O)N2CCC[C@H]2C(=O)NCC(=O)N[C@@H](CC(=O)O)C(=O)N[C@@H](Cc2ccc(O)cc2)C(=O)N1)C(=O)N[C@@H](Cc1ccc(O)cc1)C(=O)NCC(=O)NCC(=O)N[C@@H](CS)C(N)=O [Ce-2 T13G]	0.00133	299000	10.8	0.0433	5.77e-05	1.32e+06	99.4	6.11e-05	1.19e+06	0.0493	1.08e-09	9.2e-10	–
CC(C)C[C@H](NC(=O)[C@H](Cc1ccc(O)cc1)NC(=O)[C@@H]1CSCC(=O)N[C@H](Cc2ccc(O)cc2)C(=O)N[C@@H](CC(N)=O)C(=O)N[C@@H](Cc2ccc(O)cc2)C(=O)N2CCC[C@H]2C(=O)NCC(=O)N[C@@H](CC(=O)O)C(=O)N[C@@H](Cc2ccc(O)cc2)C(=O)N1)C(=O)N[C@@H](Cc1ccc(O)cc1)C(=O)NCC(=O)N[C@H](C(=O)N[C@@H](CS)C(N)=O)[C@@H](C)O [Ce-2 D2N] ({CH2CO}-[dY]NYPGDYCYLYGTC-NH2; thioether N-8)	–	–	–	–	–	–	170	–	–	–	1.99e-09	1.87e-09	–
COc1ccc(C[C@H]2NC(=O)CSC[C@@H](C(=O)N[C@@H](Cc3ccc(O)cc3)C(=O)N[C@@H](CC(C)C)C(=O)N[C@@H](Cc3ccc(O)cc3)C(N)=O)NC(=O)[C@H](Cc3ccc(O)cc3)NC(=O)[C@H](CC(=O)O)NC(=O)CNC(=O)[C@@H]3CCCN3C(=O)[C@H](Cc3ccc(O)cc3)NC(=O)[C@H](CC(=O)O)NC2=O)cc1 [Ce-2d Y1D(4OMe)F]	–	–	–	–	–	–	18700	–	–	–	6.18e-08	–	–
CC(C)C[C@H](NC(=O)[C@H](Cc1ccccc1)NC(=O)[C@@H]1CSCC(=O)N[C@H](Cc2ccc(O)cc2)C(=O)N[C@@H](CC(=O)O)C(=O)N[C@@H](Cc2ccc(O)cc2)C(=O)N2CCC[C@H]2C(=O)NCC(=O)N[C@@H](CC(=O)O)C(=O)N[C@@H](Cc2ccccc2)C(=O)N1)C(=O)N[C@@H](Cc1ccc(O)cc1)C(=O)NCC(=O)N[C@H](C(=O)N[C@@H](CS)C(N)=O)[C@@H](C)O [Ce-2 Y7F, Y9F] ({CH2CO}-[dY]DYPGDFCFLYGTC-NH2; thioether N-8)	–	–	–	–	–	–	4460	–	–	–	2.07e-08	2.03e-08	–
CC(C)C[C@H](NC(=O)[C@H](Cc1ccc(O)cc1)NC(=O)[C@@H]1CSCC(=O)N[C@H](Cc2ccc(O)cc2)C(=O)N[C@@H](CC(=O)O)C(=O)N[C@@H](Cc2ccc(O)cc2)C(=O)N2CCC[C@H]2C(=O)NCC(=O)N[C@@H](CC(=O)O)C(=O)N[C@@H](Cc2ccccc2)C(=O)N1)C(=O)N[C@@H](Cc1ccc(O)cc1)C(=O)NCC(=O)N[C@H](C(=O)N[C@@H](CS)C(N)=O)[C@@H](C)O [Ce-2 Y7F]	–	–	–	–	–	–	1170	–	–	–	1.73e-09	1.78e-09	–
CCC[C@@H]1NC(=O)[C@@H](Cc2ccc(O)cc2)NC(=O)CSC[C@@H](C(=O)N[C@@H](Cc2ccc(O)cc2)C(=O)N[C@@H](CC(C)C)C(=O)N[C@@H](Cc2ccc(O)cc2)C(=O)NCC(=O)N[C@H](C(=O)N[C@@H](CS)C(N)=O)[C@@H](C)O)NC(=O)[C@H](Cc2ccc(O)cc2)NC(=O)[C@H](CC(=O)O)NC(=O)CNC(=O)[C@@H]2CCCN2C(=O)[C@H](Cc2ccc(O)cc2)NC1=O [Ce-2 D2Nva] ({CH2CO}-[dY][Nva]YPGDYCYLYGTC-NH2; thioether N-8)	0.00195	132000	47.1	0.0257	4.98e-05	1.94e+06	8730	0.000143	376000	0.378	1.51e-09	1.46e-09	–
CC(C)C[C@H](NC(=O)[C@H](Cc1ccc(O)cc1)NC(=O)[C@@H]1CSCC(=O)N[C@H](Cc2ccc(O)cc2)C(=O)N[C@@H](CC(=O)O)C(=O)N[C@@H](Cc2ccc(O)cc2)C(=O)N[C@@H](C(C)C)C(=O)NCC(=O)N[C@@H](CC(=O)O)C(=O)N[C@@H](Cc2ccc(O)cc2)C(=O)N1)C(=O)N[C@@H](Cc1ccc(O)cc1)C(=O)NCC(=O)N[C@H](C(=O)N[C@@H](CS)C(N)=O)[C@@H](C)O [Ce-2 P4V]	0.000272	37300	7.29	0.0668	1.15e-05	173000	8960	7.52e-05	194000	0.407	2.14e-09	–	–
CC(C)C[C@H](NC(=O)[C@H](Cc1ccc(F)cc1)NC(=O)[C@@H]1CSCC(=O)N[C@H](Cc2ccc(O)cc2)C(=O)N[C@@H](CC(=O)O)C(=O)N[C@@H](Cc2ccc(O)cc2)C(=O)N2CCC[C@H]2C(=O)NCC(=O)N[C@@H](CC(=O)O)C(=O)N[C@@H](Cc2ccc(O)cc2)C(=O)N1)C(=O)N[C@@H](Cc1ccc(O)cc1)C(=O)NCC(=O)N[C@H](C(=O)N[C@@H](CS)C(N)=O)[C@@H](C)O [Ce-2 Y9(4F)F] ({CH2CO}-[dY]DYPGDYC[Phe(4-F)]LYGTC-NH2; thioether N-8)	–	–	–	–	–	–	6930	–	–	–	2.8e-09	–	–
CC(C)C[C@H](NC(=O)[C@H](Cc1ccc(O)cc1)NC(=O)[C@@H]1CSCC(=O)N[C@H](Cc2ccc(O)cc2)C(=O)N[C@@H](CC(=O)O)C(=O)N[C@@H](Cc2ccc(O)cc2)C(=O)N2CCC[C@H]2C(=O)NCC(=O)N[C@@H](CC(=O)O)C(=O)N[C@@H](Cc2ccc(O)cc2)C(=O)N1)C(=O)N[C@@H](Cc1ccc(O)cc1)C(=O)NCC(=O)N[C@H](C(=O)NO)[C@@H](C)O [Ce-2 C14NHOH]	–	–	–	–	–	–	14000	–	–	–	2.55e-09	–	–
B1	–	–	–	–	–	–	–	–	–	–	–	–	Kd (Ce-2 Thr13Ser): 1.3 nM; Kd (Ce-2): 69 nM; Kd (Ce-1 NHOH): 5000 nM
